The results in this text go back to patent publication US20240067613A1, “NOVEL QUINAZOLINE DERIVATIVES AS SOS1 INHIBITORS AND USE THEREOF” (HANMI PHARMACEUTICAL CO., LTD., priority 2020, published 2024).

The test deals with T1, SOS1 binding to KRAS G12C (Homo sapiens, UniProt Q07889).
T1 construct: consisting of amino acid residues 564 to 1049 which are the catalytic domain; purchased Reaction Biology Corporation MSC-11-502 (SOS1-Strep); MSC-11-538 (KRAS G12C)
T1 sequence (Q07889 564-1049): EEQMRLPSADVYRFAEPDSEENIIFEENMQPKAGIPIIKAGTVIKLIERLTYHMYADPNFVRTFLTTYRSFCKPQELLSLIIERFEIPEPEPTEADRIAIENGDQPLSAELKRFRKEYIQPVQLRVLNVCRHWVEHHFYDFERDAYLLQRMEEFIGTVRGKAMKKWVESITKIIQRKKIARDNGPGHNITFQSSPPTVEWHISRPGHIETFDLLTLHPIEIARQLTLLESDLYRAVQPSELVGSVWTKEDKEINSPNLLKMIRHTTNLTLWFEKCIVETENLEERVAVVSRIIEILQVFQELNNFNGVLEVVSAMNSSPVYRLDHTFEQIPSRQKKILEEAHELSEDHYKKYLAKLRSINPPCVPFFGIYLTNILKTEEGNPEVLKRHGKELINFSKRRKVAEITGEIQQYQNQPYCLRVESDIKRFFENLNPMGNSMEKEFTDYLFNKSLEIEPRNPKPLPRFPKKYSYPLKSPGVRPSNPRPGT
In words: SOS1 GTP substitution inhibition test (HTRF/TR-FRET, KRAS G12C-SOS1 binding inhibitory ability). Type of test: biochemical. The settings on record: HTRF, GST-KRAS G12C (2-169), SOS1-Strep (564-1049), 1.6, 8, 40, 200, 1,000 nM. The procedure:
In order to determine whether the substitution function of SOS1 binding to KRAS G12C is inhibited by the above-described example compounds, a homogeneous time-resolved fluorescence (HTRF) test was performed using G12C(#MSC-11-538) and SOS1-Strep(#MSC-11-502) purchased from Reaction Biology Corporation (MA, USA). The activity of SOS1 enzyme was determined by measuring the amount of GTP bound to KRAS G12C proteins, using the principle of time-resolved fluorescence energy transfer (TR-FRET). Based on the principle that terbium bound to the GST-binding antibody of the GST-KRAS G12C protein acts as a donor of fluorescence resonance energy transfer (FRET), and the GTP bound to the KRAS G12C protein is labeled with the fluorescent agent DY-647P1 and acts as a receiver, when the more GTP is bound to the KRAS G12C protein by the substitution reaction of SOS1 according to this test, the higher HTRF or FRET signal is measured. To summarize, glutathione S-transferase (GST)-tagged KRAS G12C proteins (consisting of amino acid residues 2 to 169) required for the reaction, streptavidin-tagged SOS1 proteins (consisting of amino acid residues 564 to 1049 which are the catalytic domain), anti-GST antibody (#61[…]) purchased from CISBIO corporation, nucleic acid (#NU-820-647P1) purchased from Jena Bioscience GmbH were mixed in a buffer solution formed from 10 mM HEPES pH7.4, 150 mM NaCl, 5 mM MgCl2, and 1 mM dithiothreitol (DTT), and the mixture was added to a 384-well plate and reacted at room temperature. Next, FRET signals were measured with a Perkin Elmer Envision microplate reader. In this case, an excitation signal (excitation) was measured at 320 nm, and an emission signal (emission) was measured at 615/665 nm. The fluorescence measurement value when the SOS1 protein was not included was calculated as a background signal value, and the background signal value was subtracted from all of the measured HTRF values. The fluorescence measurement value when the synthesized compound was not included was measured as a control value, and this value was selected as a reference point of 100%. For each of the example compounds, fluorescence was measured at concentrations of 1.6, 8, 40, 200, and 1,000 nM (5 points, 5-fold), and the 50% activity inhibition value (IC50) of each of the compounds was calculated using GraphPad Prism. When the IC50 value was 50 nM or less, the inhibitory ability was denoted as +++. When the IC50 value was more than 50 nM and 100 nM or less, the inhibitory ability was denoted as ++. When the IC50 value was more than 100 nM, the inhibitory ability was denoted as +.

In the case of `COc1cc2c(N[C@H](C)c3cc(N)cc(C(F)(F)F)c3)nc(C)nc2cc1C(=O)N1CCOCC1` [Example 1, (R)-(4-((1-(3-amino-5-(trifluoromethyl)phenyl)ethyl)amino)-6-methoxy-2-methylquinazoline-7-yl)(morpholino)methanone], the IC50 is no more than 50 nM. In the case of `CNCc1ccccc1-c1csc(C(C)Nc2nc(C)nc3cc(C(=O)N4CCOCC4)c(OC)cc23)c1` (stereo not shown) [Example 2, (6-methoxy-2-methyl-4-((1-(4-(2-((methylamino)methyl)phenyl)thiophen-2-yl)ethyl)amino)quinazoline-7-yl)(morpholino)methanone], the IC50 was 50 to 100 nM. In turn, `COc1cc2c(N[C@H](C)c3cc(N)cc(C(F)(F)F)c3)nc(C)nc2cc1C(=O)N1C[C@@H](C)N[C@@H](C)C1` [Example 3, (4-(((R)-1-(3-amino-5-(trifluoromethyl)phenyl)ethyl)amino)-6-methoxy-2-methylquinazoline-7-yl)((3R, S)-3,5-dimethylpiperazin-1-yl)methanone] registered an IC50 greater than 100 nM. As for `COc1cc2c(N[C@H](C)c3cc(N)cc(C(F)(F)F)c3)nc(C)nc2cc1C(=O)N1CCSCC1` [Example 4, (R)-(4-((1-(3-amino-5-(trifluoromethyl)phenyl)ethyl)amino)-6-methoxy-2-methylquinazoline-7-yl)(thiomorpholino)methanone], the figure is 50 to 100 nM. With `COc1cc2c(N[C@H](C)c3cc(N)cc(C(F)(F)F)c3)nc(C)nc2cc1C(=O)N1CC2COCC2C1` (stereo partly drawn) [Example 5, (4-(((R)-1-(3-amino-5-(trifluoromethyl)phenyl)ethyl)amino)-6-methoxy-2-methylquinazoline-7-yl)(tetrahydro-1H-furo[3,4-c]pyrrol-5(3H)-yl)methanone], the half-maximal inhibitory concentration (IC50) was greater than 100 nM. Consider `COc1cc2c(N[C@H](C)c3cccc(C(F)F)c3F)nc(C)nc2cc1C(=O)N1CCOCC1` [Example 6, (R)-(4-((1-(3-(difluoromethyl)-2-fluorophenyl)ethyl)amino)-6-methoxy-2-methylquinazoline-7-yl)(morpholino)methanone], for which the half-inhibitory concentration (IC50) was 50 to 100 nM. Regarding `COc1cc2c(N[C@H](C)c3cc(N)cc(C(F)(F)F)c3)nc(C)nc2cc1C(=O)N1CCC1` [Example 7, (R)-(4-((1-(3-amino-5-(trifluoromethyl)phenyl)ethyl)amino)-6-methoxy-2-methylquinazoline-7-yl)(azetidine-1-yl)methanone], the IC50 was greater than 100 nM. In turn, `COc1cc2c(NC(C)c3cc(-c4cccc5c4CNCC5)cs3)nc(C)nc2cc1C(=O)N1CCOCC1` (stereo not shown) [Example 8, (6-methoxy-2-methyl-4-((1-(4-(1,2,3,4-tetrahydroisoquinolin-8-yl)thiophen-2-yl)ethyl)amino)quinazoline-7-yl)(morpholino)methanone] registered an IC50 greater than 100 nM. Compound `COc1cc2c(N[C@H](C)c3cc(N)cc(C(F)(F)F)c3)nc(C)nc2cc1C(=O)N1CCNCC1` [Example 9, (R)-(4-((1-(3-amino-5-(trifluoromethyl)phenyl)ethyl)amino)-6-methoxy-2-methylquinazoline-7-yl)(piperazine-1-yl)methanone] gave an IC50 of no more than 50 nM. Turning to `COc1cc2c(N[C@H](C)c3cc(NC(=O)C(F)(F)F)cc(C(F)(F)F)c3)nc(C)nc2cc1C(=O)N1CCOCC1` [Example 10], the IC50 was greater than 100 nM. With `COc1cc2c(N[C@H](C)c3cc(N)cc(C(F)(F)F)c3)nc(C)nc2cc1C(=O)N1CC(F)C1` [Example 11, (R)-(4-((1-(3-amino-5-(trifluoromethyl)phenyl)ethyl)amino)-6-methoxy-2-methylquinazoline-7-yl)(3-fluorazetidine-1-yl)methanone], the IC50 is greater than 100 nM. Regarding `COc1cc2c(NC(C)c3cc(-c4ccccc4CN(C)C)cs3)nc(C)nc2cc1C(=O)N1CCOCC1` (stereo not shown) [Example 12], the half-inhibitory concentration (IC50) was 50 to 100 nM. For `COc1cc2c(NC(C)c3cc(-c4ccccc4CN)cs3)nc(C)nc2cc1C(=O)N1CCOCC1` (stereo not shown) [Example 13] the value was 50 to 100 nM; for `COc1cc2c(NC(C)c3cc(-c4ccccc4CO)cs3)nc(C)nc2cc1C(=O)N1CCOCC1` (stereo not shown) [Example 14], greater than 100 nM. The compound `COc1cc2c(N[C@H](C)c3cccc(C(F)(F)F)c3)nc(C)nc2cc1C(=O)N1CCOCC1` [Example 15, (R)-(6-methoxy-2-methyl-4-((1-(3-(trifluoromethyl)phenyl)ethyl)amino)quinazolin-7-yl)(morpholino)methanone] had an IC50 greater than 100 nM. Compound `COc1cc2c(N[C@H](C)c3cc(N)cc(C(F)(F)F)c3C)nc(C)nc2cc1C(=O)N1CCOCC1` [Example 16, (R)-(4-((1-(5-amino-2-methyl-3-(trifluoromethyl)phenyl)ethyl)amino)-6-methoxy-2-methylquinazolin-7-yl)(morpholino)methanone] came in with an IC50 of 50 to 100 nM. `COc1cc2c(N[C@H](C)c3cc(N)cc(F)c3)nc(C)nc2cc1C(=O)N1CCOCC1` [Example 17] showed an IC50 of no more than 50 nM. In the case of `COc1cc2c(N[C@H](C)c3cc(N)cc(C(F)(F)F)c3)nc(C)nc2cc1C(=O)N1CCS(=O)(=O)CC1` [Example 18, (R)-(4-((1-(3-amino-5-(trifluoromethyl)phenyl)ethyl)amino)-6-methoxy-2-methylquinazolin-7-yl)(1,1-dioxothiomorpholino)methanone], the half-maximal inhibitory concentration (IC50) was no more than 50 nM.

Take `COc1cc2c(N[C@H](C)c3cccc(N)c3OC)nc(C)nc2cc1C(=O)N1CCOCC1` [Example 19, (R)-(4-((1-(3-amino-2-methoxyphenyl)ethyl)amino)-6-methoxy-2-methylquinazolin-7-yl)(morpholino)methanone]: the IC50 was greater than 100 nM. For `COc1cc2c(N[C@H](C)c3cc(N)cc(C(F)(F)F)c3)nc(C)nc2cc1C(=O)N1CCSC1` [Example 20, (R)-(4-((1-(3-amino-5-(trifluoromethyl)phenyl)ethyl)amino)-6-methoxy-2-methylquinazolin-7-yl)(thiazolidine-3-yl)methanone], the concentration for half-maximal inhibition (IC50) was no more than 50 nM. `COc1cc2c(N[C@H](C)c3cc(C)cc(N)c3)nc(C)nc2cc1C(=O)N1CCOCC1` [Example 21, (R)-(4-((1-(3-amino-5-methylphenyl)ethyl)amino)-6-methoxy-2-methylquinazolin-7-yl)(morpholino)methanone] returned an IC50 of 50 to 100 nM. For `COc1cc2c(N[C@H](C)c3cc(N)cc(C#N)c3)nc(C)nc2cc1C(=O)N1CCOCC1` [Example 22, (R)-3-amino-5-(1-((6-methoxy-2-methyl-7-(morpholine-4 carbonyl)quinazolin-4-yl)amino)ethyl)benzonitrile], the IC50 was greater than 100 nM.

`COc1cc2c(N[C@H](C)c3cccc4c3CCC4)nc(C)nc2cc1C(=O)N1CCOCC1` [Example 23, (R)-(4-((1-(2,3-dihydro-1H-inden-4-yl)ethyl)amino)-6-methoxy-2-methylquinazolin-7-yl)(morpholino)methanone] came in with a 50% inhibitory concentration (IC50) of 50 to 100 nM.

Compound `COc1cc2c(N[C@H](C)c3cc(N)cc(C4CC4)c3)nc(C)nc2cc1C(=O)N1CCOCC1` [Example 24, (R)-(4-((1-(3-amino-5-cyclopropylphenyl)ethyl)amino)-6-methoxy-2-methylquinazolin-7-yl)(morpholino)methanone] gave an IC50 of 50 to 100 nM. The compound `COc1cc2c(N[C@H](C)c3cc(N)cc(C(F)(F)F)c3F)nc(C)nc2cc1C(=O)N1CCOCC1` [Example 25, (R)-(4-((1-(5-amino-2-fluoro-3-(trifluoromethyl)phenyl)ethyl)amino)-6-methoxy-2-methylquinazolin-7-yl)(morpholino)methanone] returned an IC50 of no more than 50 nM.
